# Measurements taken from article PMC4503722, “Novel Phenotypic Outcomes Identified for a Public Collection of Approved Drugs from a Publicly Accessible Panel of Assays” (PLoS ONE, 2015).
# Where two headings read alike, the source gives them in different places.
# Legend:
# [1] = test system: endothelial tube formation in co-cultures of ECFCs and ADSCs treated with VEGF; assay: cells; format: cell-based, human
# [2] = test system: ECFC/ADSC co-culture cell nuclei number
# [3] = test system: NCI-H716 cells; assay: cells; format: cell-based, Human; conditions: for hNCI-H716 GLP1 Secretion IC50/EC50: assay number 12
# [4] = test system: INS-1E cells; assay: cells; format: cell-based, rat; conditions: 5 mM glucose; for 5mMGluc_INS1E SecretionMod IC50/EC50: assay number 8;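 as to all read-outs here: secreted insulin quantified by homogeneous immunoassay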
# [5] = test system: STC-1 cell line; format: cell-based, mouse; conditions: for mSTC-1 GLP1 Secretion IC50/EC50: assay number 13
# [6] = test system: Colo320; assay: cells; format: cell-based
# [7] = test system: HT-29; assay: cells; format: cell-based
# [8] = test system: SW480; assay: cells; format: cell-based
# [9] = test system: HCT116 cells treated with a GSK3β inhibitor; assay: cells; format: cell-based
# [10] = test system: HCT116; assay: cells; format: cell-based
# [11] = test system: DLD-1; assay: cells; format: cell-based
# [12] = test system: HeLa cells; assay: cells; format: cell-based
# [13] = test system: RKO; assay: cells; format: cell-based
# [14] = test system: SNU-C1; assay: cells; format: cell-based
SMILES,VEGF_ADSC\ECFC Angio CD31 TubeArea IC50/EC50 [1] [µM],VEGF_ADSC\ECFC Angio Hoechst NucArea IC50/EC50 [2] [µM],hNCI-H716 GLP1 Secretion IC50/EC50 [3] [µM],5mMGluc_INS1E SecretionMod IC50/EC50 [4] [µM],mSTC-1 GLP1 Secretion IC50/EC50 [5] [µM],also measured
Cc1ccc(O)cc1 [NCGC00091519-09],> 10,> 10,> 40,> 33.33,> 40,
CC(C)(C)CC(C)(C)c1ccc(O)c(Cc2ccc(Cl)cc2Cl)c1 [NCGC00095016-05],,,9.073,> 33.33,0.5436,
CCCCCN=C(N)N/N=C/c1c[nH]c2ccc(OC)cc12 [NCGC00095192-05],3.1318,7.175,10.8586,16.8442,> 40,
O=C1Nc2ccc(Cl)cc2[C@@](C#CC2CC2)(C(F)(F)F)O1 [NCGC00159337-04],,,21.246,3.8674,2.476,
Cc1cc(OI)c(C(C)C)cc1-c1cc(C(C)C)c(OI)cc1C [NCGC00159504-04],,,,,,"IC50/EC50, VEGF_ADSC\ECFC Angio CD31 TubeArea (assay number 2) [1]: > 10 µM; IC50/EC50, VEGF_ADSC\ECFC Angio Hoechst NucArea (assay number 3) [2]: > 10 µM; IC50/EC50, hNCI-H716 GLP1 Secretion (assay number 12) ([3]; concentration response): > 40 µM; IC50/EC50, 5mMGluc_INS1E SecretionMod (assay number 8) [4]: > 33.33 µM; IC50/EC50, mSTC-1 GLP1 Secretion (assay number 13) ([5]; concentration response): 15.1081 µM"
CCN(CC)CCOc1ccc(C(O)(Cc2ccc(Cl)cc2)c2ccc(C)cc2)cc1 (stereo not shown) [NCGC00165907-03],3.2104,6.977,36.1068,,> 40,"Basal_Viability ATP Colo 320 IC50/EC50 ([6]; assay number 27, basal): 8.9928 µM; Basal_Viability ATP HT-29 IC50/EC50 ([7]; assay number 28, basal): 3.1665 µM; Basal_Viability ATP SW480 IC50/EC50 ([8]; assay number 24, basal): 3.7592 µM; GSK3b inh pretreated_Viability ATP HCT116 IC50/EC50 ([9]; assay number 26, GSK3b inhibitor pretreated): 3.7372 µM; Basal_Viability ATP HCT116 IC50/EC50 ([10]; assay number 25, basal): > 20 µM; Basal_Viability ATP DLD-1 IC50/EC50 ([11]; assay number 23, basal): > 20 µM; Hela CellCycMod PI 2N IC50/EC50 ([12]; assay number 14, 2N): > 10 µM; Hela CellCycMod PI S Phase IC50/EC50 ([12]; assay number 15, S phase): > 10 µM; Hela CellCycMod PI 4N IC50/EC50 ([12]; assay number 16, 4N): > 10 µM; Hela CellCycMod PI MI IC50/EC50 ([12]; assay number 17, MI): > 10 µM; Hela CellCycMod PI Cell Number IC50/EC50 ([12]; assay number 18, cell number): > 10 µM; Basal_Viability ATP RKO IC50/EC50 ([13]; assay number 29, basal): 0.2987 µM; Basal_Viability ATP SNU-C1 IC50/EC50 ([14]; assay number 30, basal): 2.4577 µM"
FC(F)(F)C(F)(F)C(F)(F)C(F)(F)C(F)(F)C(F)(F)C(F)(F)C(F)(F)Br [NCGC00166217-02],,,> 40,> 33.33,> 40,
C/C(=C(\CCOC(=O)C(C)C)SS/C(CCOC(=O)C(C)C)=C(/C)N(C=O)Cc1cnc(C)nc1N)N(C=O)Cc1cnc(C)nc1N [NCGC00167456-02],,,2.3879,> 33.33,> 40,
CCOC(=O)c1ccccc1O [NCGC00181161-03],,,,,,"IC50/EC50, hNCI-H716 GLP1 Secretion (assay number 12) ([3]; concentration response): > 40 µM; IC50/EC50, 5mMGluc_INS1E SecretionMod (assay number 8) [4]: > 33.33 µM; IC50/EC50, mSTC-1 GLP1 Secretion (assay number 13) ([5]; concentration response): > 40 µM"
Cc1cc(O)c2c(O)c3c(O)cccc3cc2c1 [NCGC00181774-02],,,,,,"IC50/EC50, VEGF_ADSC\ECFC Angio CD31 TubeArea (assay number 2) [1]: > 10 µM; IC50/EC50, VEGF_ADSC\ECFC Angio Hoechst NucArea (assay number 3) [2]: > 10 µM; IC50/EC50, hNCI-H716 GLP1 Secretion (assay number 12) ([3]; concentration response): > 20 µM; IC50/EC50, 5mMGluc_INS1E SecretionMod (assay number 8) [4]: > 33.33 µM; IC50/EC50, mSTC-1 GLP1 Secretion (assay number 13) ([5]; concentration response): 11.3101 µM"
CC(COc1ccccc1)NN (stereo not shown) [NCGC00183828-01],> 10,> 10,> 40,> 33.33,27.1817,
Cn1cc([S+](C)[O-])c(=O)c2ccc(F)cc21 (stereo not shown) [NCGC00183849-01],> 10,> 10,> 40,> 33.33,> 40,
CN1CCN(CCCN2c3ccccc3Sc3ccc(C(F)(F)F)cc32)CC1.Cl.Cl [NCGC00186653-01],,,,,,"IC50/EC50, Basal_Viability ATP Colo 320 (assay number 27) [6]: 2.3611 µM; IC50/EC50, VEGF_ADSC\ECFC Angio CD31 TubeArea (assay number 2) [1]: > 10 µM; IC50/EC50, VEGF_ADSC\ECFC Angio Hoechst NucArea (assay number 3) [2]: > 10 µM; IC50/EC50, Basal_Viability ATP HT-29 (assay number 28) [7]: 2.8136 µM; IC50/EC50, Basal_Viability ATP SW480 (assay number 24) [8]: 2.723 µM; IC50/EC50, GSK3b inh pretreated_Viability ATP HCT116 (assay number 26) [9]: 3.234 µM; IC50/EC50, Basal_Viability ATP HCT116 (assay number 25) [10]: 7.225 µM; IC50/EC50, Basal_Viability ATP DLD-1 (assay number 23) [11]: 7.3544 µM; IC50/EC50, Basal_Viability ATP RKO (assay number 29) [13]: 0.5653 µM; IC50/EC50, hNCI-H716 GLP1 Secretion (assay number 12) [3]: > 40 µM; IC50/EC50, Basal_Viability ATP SNU-C1 (assay number 30) [14]: 2.6302 µM; IC50/EC50, mSTC-1 GLP1 Secretion (assay number 13) [5]: > 40 µM"
COC(=O)C(Cl)C(=O)OC [NCGC00249607-02],> 10,> 10,> 40,> 33.33,8.3651,
NC(=O)C1(N2CCCCC2)CCN(CCCN2c3ccccc3CCc3ccc(Cl)cc32)CC1 [NCGC00253595-01],3.4001,> 10,18.348,10.0823,> 40,
Cc1c(N)cccc1C(F)(F)F [NCGC00253636-01],> 10,> 10,> 40,> 33.33,> 40,
Fc1cc(Br)ccc1CBr [NCGC00253679-01],,,> 40,> 33.33,> 40,
O=C(CBr)Nc1ccc(Cl)cc1C(=O)c1ccccc1F [NCGC00253724-01],> 10,> 10,> 40,> 33.33,> 40,
